Assay results from patent US8481525B2, “Kinase inhibitors and method of treating cancer with same” (University of Health Network, priority 2009, dated 2013).
Like-named read-outs stand apart in the source and are kept apart here.

Columns and labels:
[1] = system: A549 lung cancer cell line; assay: Cell growth inhibition, Sulforhodamine B assay (SRB); type: cell-based; conditions: Homo sapiens, read-out: Cell Line GI50 Range A-549
Experimental: (§1) The cells were cultured for 5 days before the Sulforhodamine B assay (SRB) was performed to determine the compound's cell growth inhibition activity.
(§2) Sulforhodamine B (purchased from Sigma, Oakville, ON, Canada) is a water-soluble dye that binds to the basic amino acids of the cellular proteins. Thus, colorimetric measurement of the bound dye provides an estimate of the total protein mass that is related to the cell number. the cells are fixed in situ by gently aspirating off the culture media and adding 50 μl ice cold 10% Trichloroacetic Acid (TCA) per well and incubate at 4° C. for 30-60 min, The plates are washed with water five times and allowed to air dry for 5 min. […] Following staining, plates are washed four times with 1% acetic acid to remove unbound dye and then allowed to air dry for 5 min. […] Absorbance is read at 570 nm.
(§3) The percentage (%) of relative growth inhibition was calculated by comparing to DMSO treated only cells (100%). GI50's were determined for compounds with cytotoxic activity. The GI50 was calculated using GraphPad PRISM software (GraphPad Software, Inc., San Diego, Calif., USA).

[2] = system: MDA-MB-468 basal breast cancer cell line; assay: as above; type: cell-based; conditions: Homo sapiens, 5 days culture, SRB
Experimental: as §1, §2, §3

[3] = system: MCF-7 luminal breast cancer cell line; assay: as above; type: cell-based; conditions: Homo sapiens, MCF7, 120 h, read-out: Cell Line GI50 Range MCF-7
Experimental: as §1, §2, §3

[4] = system: SW620 colon cancer cell line; assay: as above; type: cell-based; conditions: Homo sapiens, SW-620, 120 h, read-out: Cell Line GI50 Range SW-620
Experimental: as §1, §2, §3

[5] = system: HCC1954 basal breast cancer cell line; assay: as above; type: cell-based; conditions: Homo sapiens, 5 days culture, SRB
Experimental: as §1, §2, §3

human PLK4 = target: T1, human PLK4 (Homo sapiens, UniProt O00444); assay: PLK4 Inhibition Assay (indirect ELISA); type: biochemical
T1 construct: amino terminal GST fusion of residues 1-391 of human PLK4; made in house; host or cells: E. coli
T1 sequence (O00444 1-391): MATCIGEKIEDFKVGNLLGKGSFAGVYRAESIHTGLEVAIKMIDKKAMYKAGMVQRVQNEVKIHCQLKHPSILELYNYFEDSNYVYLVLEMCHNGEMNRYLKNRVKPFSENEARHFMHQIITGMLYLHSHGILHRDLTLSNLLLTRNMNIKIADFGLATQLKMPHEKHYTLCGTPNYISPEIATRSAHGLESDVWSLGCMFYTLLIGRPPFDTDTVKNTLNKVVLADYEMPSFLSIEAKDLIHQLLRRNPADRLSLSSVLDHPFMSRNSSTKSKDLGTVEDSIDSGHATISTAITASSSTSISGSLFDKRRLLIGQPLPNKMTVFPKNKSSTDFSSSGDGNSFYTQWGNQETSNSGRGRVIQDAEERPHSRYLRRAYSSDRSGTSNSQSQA
Experimental: The protein was purified from clarified cell extracts after induction at 15° C. overnight using glutathione sepharose, gel permeation chromatography, and ion exchange (Resource Q). The resulting protein was dephosphorylated with lambda phosphatase (NEB cat# P0753), and resolved from the phosphatase using gluthione sepharose. The dephosphorylated GST-PLK4 was stored in aliquots at −80° C. until use.
PLK4 activity was measured using an indirect ELISA detection system. […] The colourimetric reaction was allowed to continue for 5 minutes, followed by addition of stop solution (0.5 N sulphuric acid), and quantified by detection at 450 nm with either a monochromatic or filter based plate reader (Molecular Devices M5 or Beckman DTX880, respectively).
Compounds were pre-incubated in the presence of enzyme for 15 minutes prior to addition of ATP and the activity remaining quantified using the above described activity assay. […] The IC50 value was determined using a non-linear 4 point logistic curve fit (XLfit4, IDBS) with the formula; (A+(B/(1+((x/C){grave over ( )}D)))), where A=background value, B=range, C=inflection point, D=curve fit parameter.

Aurora B = target: T2, Aurora B (Homo sapiens, UniProt Q96GD4); assay: Aurora B Inhibition Assay (Z-Lyte); type: biochemical; conditions: 128 μM ATP; read-out: Aurora B IC50 Ranges
T2 construct: purchased Invitrogen PV3970
T2 sequence (Q96GD4 whole entry): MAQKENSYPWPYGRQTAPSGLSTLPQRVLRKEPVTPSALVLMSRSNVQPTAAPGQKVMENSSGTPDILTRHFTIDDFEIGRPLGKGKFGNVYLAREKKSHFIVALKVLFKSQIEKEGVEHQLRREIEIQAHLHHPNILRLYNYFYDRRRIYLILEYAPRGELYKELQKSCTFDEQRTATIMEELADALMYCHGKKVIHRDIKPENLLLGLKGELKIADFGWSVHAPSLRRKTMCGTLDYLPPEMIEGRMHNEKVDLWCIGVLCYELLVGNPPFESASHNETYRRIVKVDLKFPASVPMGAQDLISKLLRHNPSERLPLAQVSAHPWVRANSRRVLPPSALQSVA
Experimental: Aurora B inhibition was determined using the Z-Lyte assay kit from Invitrogen. […] The % inhibition values were determined according to the manufacturer's directions and IC50 values were obtained using a non-linear 4 point logistic curve fit (XLfit4, IDBS)

Aurora A = target: T3, Aurora A (Homo sapiens, UniProt O14965); assay: Aurora A Inhibition Assay (Z-Lyte); type: biochemical; conditions: 1 μM compound; 20 μM ATP; read-out: Aurora A relative inhibition percentage at a dose of 1 μM
T3 construct: purchased Invitrogen PV3612
T3 sequence (O14965 1-403): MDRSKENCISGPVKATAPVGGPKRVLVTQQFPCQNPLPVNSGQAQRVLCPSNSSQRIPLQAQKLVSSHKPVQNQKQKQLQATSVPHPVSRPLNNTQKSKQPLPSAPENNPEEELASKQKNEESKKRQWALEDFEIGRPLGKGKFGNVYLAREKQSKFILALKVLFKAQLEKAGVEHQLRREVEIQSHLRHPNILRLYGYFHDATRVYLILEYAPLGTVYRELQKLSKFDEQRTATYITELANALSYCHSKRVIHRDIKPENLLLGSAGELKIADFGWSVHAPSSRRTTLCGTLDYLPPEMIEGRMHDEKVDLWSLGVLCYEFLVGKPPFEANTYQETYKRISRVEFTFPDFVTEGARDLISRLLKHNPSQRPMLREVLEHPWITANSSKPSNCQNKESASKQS
Experimental: Aurora A inhibition was determined using the Z-Lyte assay kit from Invitrogen. The assay was performed using the recommended manufacturer's instructions with 20 μM ATP and 12 nM Aurora A (Invitrogen cat # PV3612). The % inhibition values were determined according to the manufacturer's directions and IC50 values were obtained using a non-linear 4 point logistic curve fit (XLfit4, IDBS)

HUV-EC-C cells = assay: In Vitro Angiogenesis Assay (tube formation); conditions: HUV-EC-C cells on ECMatrix, 4 hr; FIGS. 1 and 2
AMPKalpha = assay: CEREP HTRF kinase selectivity assay; type: biochemical, human
Experimental: The inhibitory activity of selected compounds of the invention was evaluated against a panel of 45 different kinase enzymes by CEREP, France. The assays were performed using standard HTRF assay methods as documented by CEREP against the human orthologues of Ab1 kinase, Akt1/PKBa, AMPKa, BMX kinase (Etk), Brk, CaMK2a, CaMK4, CDC2/CDK1 (cycB), CHK1, CHK2, c-Met kinase, CSK, EphB4 kinase, ERKI, ERK2 (P42mapk), FGFR2 kinase, FGFR4 kinase, FLT-1 kinase (VEGFR1), FLT-3 kinase, Fyn kinase, 1GF1R kinase, IRK (InsR), JNK 2, KDR kinase (VEGFR2), Lck kinase, Lyn kinase, MAPKAPK2, MEK1/MAP2K1, p38a kinase, p38d kinase, p38 g kinase, PDGFRb kinase, PDKI, PKA, PKCa, PKCb1, PKCb2, PKCg, Ret kinase, ROCK2, RSK2, Src kinase, Syk, and TRKA (Table 3). The % Inhibition was determined by the formula; % Inhibition=100×(1−(experimental value−background value)/(high activity control−background value)).

[6] = 120 h, A549 lung cancer cell line, 5 days culture, SRB
[7] = 120 h, MDA-MB-468 basal breast cancer cell line, read-out: Cell Line GI50 Range MDA-MB-468
[8] = MCF-7 luminal breast cancer cell line, 5 days culture, SRB
[9] = SW620 colon cancer cell line, 5 days culture, SRB
[10] = 120 h, HCC1954 basal breast cancer cell line, read-out: Cell Line GI50 Range HCC-1954
[11] = 15 μM ATP, read-out: PLK4 IC50 Ranges
[12] = MDA-MB-468, 120 h, read-out: Cell Line GI50 Range MDA-MB-468, MDA-MB-468 basal breast cancer cell line
[13] = HCC1954, 120 h, read-out: Cell Line GI50 Range HCC-1954, HCC1954 basal breast cancer cell line
[14] = HCC1954, 120 h, HCC1954 basal breast cancer cell line, read-out: Cell Line GI50 Range HCC-1954

SMILES | GI50 [1, 6] | GI50 [2, 7] | GI50 [3, 8] | GI50 [4, 9] | IC50 (human PLK4; [11]) | IC50 (Aurora B) | IC50 (human PLK4) | other results
COc1ccc2c(c1)[C@@]1(C[C@@H]1c1ccc3c(-c4ccc(N5CCNCC5)cc4)n[nH]c3c1)C(=O)N2 (racemic) [Example A48, (1R*,2S*)-5′-methoxy-2-(3-(4-(piperazin-1-yl)phenyl)-1H-indazol-6-yl)spiro[cyclopropane-1,3′-indolin]-2′-one 2,2,2-trifluoroacetate] |  |  |  |  |  | < 100 nM | < 100 nM | GI50 ([1]; A549, 120 h): < 100 nM; GI50 [2, 12]: < 100 nM; GI50 [3]: < 100 nM; GI50 [4]: 1000 to 10000 nM; GI50 [5, 13]: 1000 to 10000 nM; inhibition at 1 µM (Aurora A): < 50%
O=C1Nc2ccccc2[C@]12C[C@H]2c1ccc2c(I)n[nH]c2c1 (relative stereo) [Example A9, (1R*,2S*)-2-(3-iodo-1H-indazol-6-yl)spiro[cyclopropane-1,3′-indolin]-2′-one] |  |  |  |  |  |  | 100 to 1000 nM | 
COc1ccc2c(c1)[C@]1(C[C@H]1c1ccc3c(-c4ccc(N5CCN(C)CC5)nc4)n[nH]c3c1)C(=O)N2 (relative stereo) [Example A13, (1R*,2S*)-5′-Methoxy-2-(3-(6-(4-methylpiperazin-1-yl)pyridin-3-yl)-1H-indazol-6-yl)spiro[cycloropane-1,3′-indolin]-2′-one] |  |  |  |  |  |  |  | anti-angiogenic effect (tube formation, % of control tube count) (HUV-EC-C cells): anti-agiogenic effects at submicromolar concentrations; % Inhibition @ 10 uM (AMPKalpha): 8%
COc1ccc2c(c1)[C@]1(C[C@H]1c1ccc3c(/C=C/c4cc(F)c(CN(C)C)c(F)c4)n[nH]c3c1)C(=O)N2 (relative stereo) [Example A215, (1R*,2 S*)-(E)-2-(3-(4-((dimethylamino)methyl)-3,5-difluorostyryl)-1H-indazol-6-yl)-5′-methoxyspiro[cyclopropane-1,3′-indolin]-2′-one 2,2,2-trifluoro acetate] |  |  |  |  | < 100 nM | < 100 nM |  | 
COc1ccc2c(c1)[C@]1(C[C@H]1c1ccc3c(-c4ccc(N5CCNCC5)cc4)n[nH]c3c1)C(=O)N2 [Example A49, (1R,2S)-5′-methoxy-2-(3-(4-(piperazin-1-yl)phenyl)-1H-indazol-6-yl)spiro[cyclopropane-1,3′-indolin]-2′-oneone 2,2,2-trifluoroacetate] |  |  |  |  |  | < 100 nM | < 100 nM | GI50 ([1]; A549, 120 h): < 100 nM; GI50 [2, 12]: < 100 nM; GI50 [3]: < 100 nM; GI50 [4]: 1000 to 10000 nM; GI50 [5, 13]: 1000 to 10000 nM; inhibition at 1 µM (Aurora A): < 50%

More lines, main results first:

GI50 [1, 6] | GI50 [2, 7] | GI50 [3, 8] | GI50 [4, 9] | IC50 (human PLK4; [11]) | IC50 (Aurora B) | SMILES | IC50 (human PLK4) | other results
1000 to 10000 nM | 100 to 1000 nM | < 100 nM | 1000 to 10000 nM | < 100 nM | < 100 nM | COc1ccc2c(c1)[C@@]1(C[C@@H]1c1ccc3c(-c4ccc(N5CCNCC5)nc4)n[nH]c3c1)C(=O)N2 (racemic) [Example A21, 4-(5-(6-((1R*,2S*)-5′-Methoxy-2′-oxospiro[cyclopropane-1,3′-indoline]-2-yl)-1H-indazol-3-yl)pyridinium-2-yl)piperazine bis(2,2,2-trifluoroacetate)] |  | GI50 [5, 10]: > 10000 nM
1000 to 10000 nM | 1000 to 10000 nM | 1000 to 10000 nM | > 10000 nM | < 100 nM |  | COc1ccc2c(c1)[C@@]1(C[C@@H]1c1ccc3c(-c4cccc(CCO)c4)n[nH]c3c1)C(=O)N2 (racemic) [Example A46, (1R*,2S*)-2-(3-(3-(2-hydroxethyl)phenyl)-1H-indazol-6-yl)-5′-methoxy spiro[cyclopropane-1,3′-indolin]-2′-one] |  | GI50 [5, 10]: > 10000 nM
< 100 nM | < 100 nM | < 100 nM | < 100 nM | < 100 nM | < 100 nM | COc1ccc2c(c1)[C@@]1(C[C@@H]1c1ccc3c(-c4ccc(N5CCC(N(C)C)CC5)cc4)n[nH]c3c1)C(=O)N2 (racemic) [Example A119, (1R*,2S*)-2-(3-(4-(4-(dimethlamino)piperidin-yl)phenyl)-1H-indazol-6-yl)-5′-methoxyspiro[cyclopropane-1,3′-indolin]-2′-one 2,2,2-trifluoroacetate] |  | GI50 [5, 14]: 100 to 1000 nM
< 100 nM | < 100 nM | < 100 nM | < 100 nM | < 100 nM | < 100 nM | COc1ccc2c(c1)[C@@]1(C[C@@H]1c1ccc3c(/C=C/c4csc(CN(C)C)c4)n[nH]c3c1)C(=O)N2 (racemic) [Example A181, (1R*,2S*)-2-(3-((E)-2-(5-((dimethylamino)methyl)thiophen-3-yl)vinyl)-1H-indazol-6-yl)-5′-methoxyspiro[cyclopropane-1,3′-indolin]-2′-one 2,2,2-trifluoro acetate] |  | GI50 [5, 14]: 100 to 1000 nM
